Experimental data from ChEMBL document CHEMBL4043196, “Efficient synthesis of the GABAA receptor agonist trans-4-aminocrotonic acid (TACA)” (Bioorg Med Chem Lett, 2017).
Calls of active or inactive are those of the source. The calls are words filed in the database; no cut-off is given here.

Experiments:
[1] = Agonist activity at Heaemonchus contortus UNC-49B/C GABAA receptor expressed in Xenopus laevis oocytes by two-electrode voltage-clamp method; format: cell-based; conditions: Haemonchus contortus
[2] = tested on: Haemonchus contortus; test: Agonist activity at Heaemonchus contortus UNC-49B/C GABAA receptor expressed in Xenopus laevis oocytes at 500 uM by two-electrode voltage-clamp method; format: cell-based

EC50 [1] [µM]	SMILES	Activity [2]
290	NC/C=C/C(=O)O [t-4-AMINOCROTONIC ACID (TACA)]	
	NCC(Cl)CC(=O)O (stereo not drawn)	inactive
	NCC(Br)CC(=O)O (stereo not drawn)	inactive
